# Biological target: T1, hMCHR (MCH receptor) (Homo sapiens, UniProt Q99705)
# T1 construct: (or internally produced); host or cells: CHO (Chinese hamster ovary) cells, membrane preparation
# Test: MCH Assay PCOP Protocol ([125I]-MCH SPA binding to hMCHR-CHO membranes);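 for Activity (Ki range): A 0.4–50 nM B 51–500 nM C 501–2500 nM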
# Conditions: [125I]-MCH 0.5 nM, hMCHR-CHO membranes; read-out: Activity (ranges of Ki values)
# Method: A reaction mixture of 10 μg hMCHR-CHO overexpressing membranes (from Receptor Biology, Inc., Beltsville, Md., or internally produced) and 100 μg/well WGA-SPA beads (from Amersham Pharmacia Biotech, Inc., Piscataway, N.J.)/100 μl was prepared in MCHR assay buffer (25 mM HEPES, pH 7.4, 10 mM NaCl, 10 mM MgCl2, 5 mM MnCl2, 0.1% BSA). […] The assay plates were shaken for 5 minutes on a plate shaker, then incubated for 2 hours before cpm/well were determined in a Microbeta Trilux counter (from PerkinElmer Wallac, Inc., Gaithersburg, Md.).
# T1 sequence (Q99705 whole entry): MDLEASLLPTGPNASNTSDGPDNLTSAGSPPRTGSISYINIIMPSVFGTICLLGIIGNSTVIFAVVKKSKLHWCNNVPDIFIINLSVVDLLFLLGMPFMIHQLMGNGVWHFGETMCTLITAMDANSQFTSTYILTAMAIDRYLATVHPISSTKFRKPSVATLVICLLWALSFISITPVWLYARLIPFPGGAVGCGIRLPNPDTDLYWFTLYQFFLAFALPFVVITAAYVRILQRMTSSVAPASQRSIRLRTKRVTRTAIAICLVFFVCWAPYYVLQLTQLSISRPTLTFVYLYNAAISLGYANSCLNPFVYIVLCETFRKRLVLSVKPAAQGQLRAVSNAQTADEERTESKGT
row,Structure (SMILES),Ki
1,CNCCC(CNC(=O)Nc1cccc(Cl)c1)c1ccc(-c2cccc(C#N)c2)cc1 (centres unmarked) [Example 45],0.4 to 50 nM
2,O=C(NCC(CCNC1CCCC1)c1ccc(-c2ccc(F)c(F)c2)cc1)Nc1cc(Cl)cc(Cl)c1 (centres unmarked) [Example 90],0.4 to 50 nM
3,O=C(NCC(CCNC1CCCC1)c1ccc(Cl)c(Cl)c1)Nc1ccc(F)c(Cl)c1 (centres unmarked) [Example 134],51 to 500 nM
4,O=C(NCC(CCNC1CCCC1)c1cccc(-c2ccccc2Cl)c1)Nc1cc(Cl)cc(Cl)c1 (centres unmarked) [Example 166],501 to 2500 nM
5,O=C(NCC(CCN1CCC(NC(=O)C2CCC2)CC1)c1ccc(Cl)cc1)Nc1cc(Cl)cc(Cl)c1 (centres unmarked) [Example 185],51 to 500 nM
6,CNCCC(CNC(=O)Nc1ccccc1)c1ccc(-c2cccc(C#N)c2)cc1 (centres unmarked) [Example 57],0.4 to 50 nM
7,COCC(=O)NC1CCN(CCC(CNC(=O)Nc2cc(Cl)cc(Cl)c2)c2ccc(Cl)c(Cl)c2)CC1 (centres unmarked) [Example 195],51 to 500 nM
8,Cc1ccc(C(CCN2CCC(NC(=O)c3cccs3)CC2)CNC(=O)Nc2cc(Cl)cc(Cl)c2)cc1 (centres unmarked) [Example 198],51 to 500 nM
9,CS(=O)(=O)NC1CCN(CCC(CNC(=O)Nc2cc(Cl)cc(Cl)c2)c2ccc(Cl)c(Cl)c2)C1 (centres unmarked) [Example 211],501 to 2500 nM
10,CN(C)CCCNCCC(CNC(=O)Nc1cc(Cl)cc(Cl)c1)c1cccc(-c2ccc(Cl)c(Cl)c2)c1 (centres unmarked) [Example 167],501 to 2500 nM
11,O=C(NCC(CCN1CCC(NC(=O)c2ccno2)C1)c1ccc(Cl)cc1)Nc1cc(Cl)cc(Cl)c1 (centres unmarked) [Example 193],51 to 500 nM
12,COCC(=O)NC1CCN(CCC(CNC(=O)Nc2cc(Cl)cc(Cl)c2)c2ccc(Cl)c(Cl)c2)C1 (centres unmarked) [Example 188],51 to 500 nM
13,CC(=O)NC1CCN(CCC(CNC(=O)Nc2cc(Cl)cc(Cl)c2)c2ccc(C)cc2)C1 (centres unmarked) [Example 215],501 to 2500 nM
14,N#Cc1cccc(-c2ccc(C(CCNC3CC3)CNC(=O)Nc3ccc(F)c(F)c3)cc2)c1 (centres unmarked) [Example 53],0.4 to 50 nM
15,CN(C)CCCNCCC(CNC(=O)Nc1cc(Cl)cc(Cl)c1)c1ccc(-c2ccc(C#N)cc2)cc1 (centres unmarked) [Example 98],51 to 500 nM
16,O=C(NCC(CCN1CCC(NC(=O)c2cccs2)C1)c1ccc(Cl)cc1)Nc1cc(Cl)cc(Cl)c1 (centres unmarked) [Example 183],51 to 500 nM
17,O=C(NCC(CCNC1CCCC1)c1ccc(-c2ccc[n+]([O-])c2)cc1)Nc1cc(Cl)cc(Cl)c1 (centres unmarked) [Example 94],0.4 to 50 nM
18,COc1cc(CNCCC(CNC(=O)Nc2ccc(F)c(F)c2)c2ccc(Cl)c(Cl)c2)cc(OC)c1OC (centres unmarked) [Example 131],51 to 500 nM
19,CCCOC(=O)N1CCN(CCC(CNC(=O)Nc2cc(C(F)(F)F)cc(C(F)(F)F)c2)c2ccc(Cl)c(Cl)c2)CC1 (centres unmarked) [Example 146],51 to 500 nM
20,Cc1ccc(C(CCNC2CCCC2)CN2CCN(c3cc(Cl)cc(Cl)c3)C2=O)cc1 (centres unmarked) [Example 160],51 to 500 nM
21,CNCCC(CNC(=O)Nc1cccc(F)c1)c1ccc(-c2cccc(C#N)c2)cc1 (centres unmarked) [Example 49],0.4 to 50 nM
22,O=C(NCC(CCNC1CCCC1)c1ccc(Cl)cc1)Nc1cccc(Br)c1 (centres unmarked) [Example 136],51 to 500 nM
23,CCNC(=O)N1CCC(NCCC(CNC(=O)Nc2cc(Cl)cc(Cl)c2)c2ccc(Cl)cc2)C1 (centres unmarked) [Example 177],51 to 500 nM
24,O=C(NCC(CCNC1CCCC1)c1cccc(-c2cccc([N+](=O)[O-])c2)c1)Nc1cc(Cl)cc(Cl)c1 (centres unmarked) [Example 148],51 to 500 nM
25,CN(C)CCCNCCC(C)(CNC(=O)Nc1cc(Cl)cc(Cl)c1)c1ccc(Cl)c(Cl)c1 (centres unmarked) [Example 111],51 to 500 nM
26,CS(=O)(=O)NC1CCN(CCC(CNC(=O)Nc2cc(Cl)cc(Cl)c2)c2ccc(Cl)cc2)CC1 (centres unmarked) [Example 179],51 to 500 nM

# Same assay, conditions: [125I]-MCH SPA binding, hMCHR-CHO membranes; Ki class ranges; read-out: Activity (range of Ki)
row,Structure (SMILES),Ki
1,CC(Cc1c[nH]c2ccc(F)cc12)NCCC(CNC(=O)Nc1cc(C(F)(F)F)cc(C(F)(F)F)c1)c1ccc(Cl)c(Cl)c1 (centres unmarked) [Example 439],501 to 2500 nM
2,O=C(NCc1cc(C(F)(F)F)cc(C(F)(F)F)c1)C(CCN1CCC(N2CCCCC2)CC1)c1ccc(Cl)c(Cl)c1 (centres unmarked) [Example 457],501 to 2500 nM
3,O=C(NCC(CCNCCN1CCOCC1)c1ccc(Cl)c(Cl)c1)Nc1cc(C(F)(F)F)cc(C(F)(F)F)c1 (centres unmarked) [Example 428],501 to 2500 nM
4,CC1CCCCN1CCC(CNC(=O)c1cc(C(F)(F)F)cc(C(F)(F)F)c1)c1ccc(Cl)c(Cl)c1 (centres unmarked) [Example 419],501 to 2500 nM
5,CC(Cc1c[nH]c2ccccc12)NCCC(CNC(=O)Nc1cc(C(F)(F)F)cc(C(F)(F)F)c1)c1ccc(Cl)c(Cl)c1 (centres unmarked) [Example 438],501 to 2500 nM

# Same assay, conditions: [125I]-MCH binding to hMCHR-CHO membranes; class symbols for ranges of Ki; read-out: Activity (Ki range)
row,Structure (SMILES),Ki
1,O=S(=O)(NCC(CCN1CCC(c2ccccc2)CC1)c1ccc(Cl)c(Cl)c1)c1ccc(Cl)c(Cl)c1 (centres unmarked) [Example 348],501 to 2500 nM
2,CN(CCC(CNC(=O)c1cc(C(F)(F)F)cc(C(F)(F)F)c1)c1ccc(Cl)c(Cl)c1)C1CCCCC1 (centres unmarked) [Example 408],501 to 2500 nM
3,O=C(NCc1cc(C(F)(F)F)cc(C(F)(F)F)c1)C(CCNCCN1CCCC1)c1ccc(Cl)c(Cl)c1 (centres unmarked) [Example 380],501 to 2500 nM
4,O=C(NCC(CCN1CCC(N2CCCCC2)CC1)c1ccc(Cl)c(Cl)c1)Nc1cccc([N+](=O)[O-])c1 (centres unmarked) [Example 317],501 to 2500 nM
5,CCOC(=O)N1CCC(NCCC(CNC(=O)Nc2ccc(F)c(F)c2)c2ccc(Cl)c(Cl)c2)CC1 (centres unmarked) [Example 262],51 to 500 nM
6,O=C(NCC(CCNCCc1c[nH]c2ccccc12)c1ccc(Cl)c(Cl)c1)Nc1cc(C(F)(F)F)cc(C(F)(F)F)c1 (centres unmarked) [Example 320],501 to 2500 nM
7,O=C(NCC(CCN1CCC(N2CCCCC2)CC1)c1ccc(Cl)c(Cl)c1)Nc1ccc(F)c(F)c1F (centres unmarked) [Example 363],501 to 2500 nM
8,CN(C)CCCNCCC(CNC(=O)Nc1ccc(Cl)c(Cl)c1)c1ccc(Cl)c(Cl)c1 (centres unmarked) [Example 305],501 to 2500 nM
9,COc1ccccc1-c1ccc(C(CCNC2CCCC2)CNC(=O)Nc2cc(Cl)cc(Cl)c2)cc1 (centres unmarked) [Example 238],51 to 500 nM
10,O=C(NCC(CCN1CCC(N2CCCCC2)CC1)c1ccc(Cl)c(Cl)c1)Nc1ccc([N+](=O)O)cc1 (centres unmarked) [Example 315],51 to 500 nM
11,O=C(NCC(CCN1CCNCC1)c1ccc(Cl)c(Cl)c1)Nc1ccc(Cl)c(Cl)c1 (centres unmarked) [Example 307],501 to 2500 nM
12,O=C(NCC(CCNC1CCC1)c1ccc(Cl)cc1)Nc1cc(Cl)cc(Cl)c1 (centres unmarked) [Example 273],51 to 500 nM
13,O=C(NCC(CCNCCc1c[nH]c2ccccc12)c1cccc(F)c1)Nc1cc(C(F)(F)F)cc(C(F)(F)F)c1 (centres unmarked) [Example 343],501 to 2500 nM
14,CN(C)CCCNCCC(CNC(=O)Nc1cc(C(F)(F)F)cc(C(F)(F)F)c1)c1ccc(Cl)cc1 (centres unmarked) [Example 337],501 to 2500 nM
15,CCNC(=O)NC1CCN(CCC(CNC(=O)Nc2cc(Cl)cc(Cl)c2)c2ccc(C)cc2)CC1 (centres unmarked) [Example 327],501 to 2500 nM
16,O=C(NCc1cc(C(F)(F)F)cc(C(F)(F)F)c1)C(CCNCCCn1ccnc1)c1ccc(Cl)c(Cl)c1 (centres unmarked) [Example 388],501 to 2500 nM
17,O=C(NCC(CCNCCc1c[nH]c2ccccc12)c1cccc(Cl)c1)Nc1cc(C(F)(F)F)cc(C(F)(F)F)c1 (centres unmarked) [Example 333],51 to 500 nM
18,O=C(NCC(CCNC1CCC1)c1ccc(Cl)c(Cl)c1)Nc1ccc(Cl)c(Cl)c1 (centres unmarked) [Example 282],51 to 500 nM
19,Cc1ccc(C(CCN2CCC(N3CCCCC3)CC2)CNC(=O)Nc2cc(Cl)cc(Cl)c2)cc1 (centres unmarked) [Example 351],51 to 500 nM
20,O=C(NCC(CCNC1CCCC1)c1ccc(-c2ccc(O)cc2)cc1)Nc1cc(Cl)cc(Cl)c1 (centres unmarked) [Example 242],51 to 500 nM
21,Cc1ccc2[nH]cc(CCNCCC(CNC(=O)c3cc(C(F)(F)F)cc(C(F)(F)F)c3)c3ccc(Cl)c(Cl)c3)c2c1 (centres unmarked) [Example 410],501 to 2500 nM
22,O=C(NCC(CCNC1CCCC1)c1ccc(Cl)cc1)Nc1cc(Cl)cc(Cl)c1 (centres unmarked) [Example 267],51 to 500 nM

# Source: patent publication US7034056B2, “Aryl and biaryl compounds having MCH modulatory activity” (Pharmacopeia Drug Discovery, inc., priority 2001, dated 2006)
